Measurements: paper PMC5802374 (Cell, 2018)
Several values for one entry are separate records, joined by “and”; a condition that tells them apart may be missing. Equal values may be shown once. Read-outs that look alike come from different tables or passages of the source.

Columns and labels:
MOP [1] = target: T1, MOP (Homo sapiens, UniProt P35372); assay: cAMP inhibition assay; type: cell-based; conditions: N = 3
KOP wt [2] = target: T2, KOP wt (Homo sapiens, UniProt P41145); conditions: N = 3
T2 sequence (P41145 whole entry): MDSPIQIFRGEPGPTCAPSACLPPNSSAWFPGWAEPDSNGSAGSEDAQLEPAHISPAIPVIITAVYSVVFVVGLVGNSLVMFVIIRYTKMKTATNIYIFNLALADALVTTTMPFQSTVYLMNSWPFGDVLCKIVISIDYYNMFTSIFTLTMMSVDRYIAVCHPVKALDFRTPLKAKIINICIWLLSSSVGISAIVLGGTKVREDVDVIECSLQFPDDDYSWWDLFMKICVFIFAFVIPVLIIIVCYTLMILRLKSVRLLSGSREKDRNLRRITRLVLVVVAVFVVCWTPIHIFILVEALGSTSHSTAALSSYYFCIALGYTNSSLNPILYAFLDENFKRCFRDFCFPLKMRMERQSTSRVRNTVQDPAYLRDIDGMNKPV

MOP [3] = target: T1, MOP; conditions: N = 3
MOP [4] = target: T1, MOP; assay: Bias factor towards G protein in MOP; type: cell-based; conditions: GTPγ[35S] vs BRET arrestin recruitment; DAMGO as reference agonist
KOP [5] = target: T3, KOP (Homo sapiens, UniProt P41145); type: cell-based
T3 sequence (P41145 whole entry): as above

KOP [6] = target: T3, KOP; type: cell-based; remark: listed apart in the source
MOP [7] = target: T1, MOP; assay: cell-based
KOP wt [8] = target: T2, KOP wt; assay: cell-based
KOP [9] = target: T3, KOP; assay: biochemical
MOP [10] = target: T1, MOP; assay: biochemical
KOP [11] = target: T3, KOP
MOP [12] = target: T1, MOP
KOP [13] = assay: Radioligand; type: binding, human; conditions: agonist U69,593; KOP+Nb39 vs KOP only
[14] = target: human kappa-opioid receptor (KOP) containing C-terminal Renilla luciferase (RLuc8) (human, UniProt P41145); assay: FRET or BRET
Chain of human kappa-opioid receptor (KOP) containing C-terminal Renilla luciferase (RLuc8) (P41145 whole entry): as above

T1 sequence (P35372 whole entry): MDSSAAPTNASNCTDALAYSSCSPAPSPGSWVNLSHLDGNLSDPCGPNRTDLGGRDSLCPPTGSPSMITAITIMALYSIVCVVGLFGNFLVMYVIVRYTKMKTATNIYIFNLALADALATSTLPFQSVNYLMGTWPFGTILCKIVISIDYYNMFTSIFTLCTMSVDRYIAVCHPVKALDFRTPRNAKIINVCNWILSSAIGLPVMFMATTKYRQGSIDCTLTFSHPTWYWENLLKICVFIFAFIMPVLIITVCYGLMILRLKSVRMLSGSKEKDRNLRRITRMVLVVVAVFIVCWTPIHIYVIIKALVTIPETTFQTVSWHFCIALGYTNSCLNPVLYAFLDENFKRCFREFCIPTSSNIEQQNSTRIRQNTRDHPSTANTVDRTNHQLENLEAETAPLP

With `O=C(N[C@@H]1CC[C@@]2(O)[C@H]3Cc4ccc(O)c5c4[C@@]2(CCN3CC2CC2)[C@H]1O5)c1cccc(I)c1` [IBNtxA] the “Emax Gi activation (cAMP inhibition) in MOP” value (MOP [1]) was 99±6, the EC50 (MOP [1]; read-out: EC50 Gi activation (cAMP inhibition) in MOP) was 0.056 ± 0.012 nM and the “Emax arrestin recruitment in KOP wt, Figure 5D” value (KOP wt [2]; Figure 5D, comparison with Y312^7.35W) was 112±10. For the same molecule, the “Emax arrestin recruitment (Tango) in KOP wt” value (KOP wt [2]; method: normalized to % SalA stimulation) was 95±8 and 113±12, the EC50 (KOP wt [2]; read-out: EC50 arrestin recruitment (Tango) in KOP wt) was 0.032 ± 0.01 nM and the “Emax arrestin recruitment (Tango) in MOP” value (MOP [3]) was 25±6 and 23±4. The EC50 (MOP [3]; read-out: EC50 arrestin recruitment (Tango) in MOP) was 0.075 nM and 0.1 nM, the “Bias factor towards G protein in MOP, 10^ΔΔLog(τ/KA)” value (MOP [4]) was 9 and the “Emax Gi activation (cAMP inhibition) in KOP” value (KOP [5]) was 96±1. For the same molecule, the EC50 (KOP [5]; read-out: EC50 Gi activation (cAMP inhibition) in KOP) was 0.002 ± 0.001 nM.

In the case of `CC(C)[C@@H](CN1CC[C@@](C)(c2cccc(O)c2)[C@@H](C)C1)NC(=O)[C@H]1Cc2ccc(O)cc2CN1` [JDTic], the “Nb39 recruitment to KOP (in words)” value (KOP [6]) is reported as “no effect”.

`C=CCN1CC[C@]23c4c5ccc(O)c4OC2[C@H](NC(=O)c2ccc(F)c(I)c2)CC[C@@]3(O)C1C5` (stereo partly drawn) [MP903, N-((4aS,7R,12bS)-3-allyl-4a,9-dihydroxy-2,3,4,4a,5,6,7,7a-octahydro-1H-4,12-methanobenzofuro[3,2-e]isoquinolin-7-yl)-4-fluoro-3-iodobenzamide] gave an EC50 (MOP [7]) of 0.12 ± 0.05 nM, an Emax (MOP [7]; read-out: Emax arrestin recruitment (Tango) in MOP) of 33 ± 5% and an EC50 (KOP wt [8]) of 0.074 ± 0.012 nM. For the same molecule, the Emax (KOP wt [8]; read-out: Emax arrestin recruitment (Tango) in KOP wt) was 108 ± 10%.

With `O=C(N[C@@H]1C=CC2C3Cc4ccc(O)c5c4[C@@]2(CCN3CC2CC2)C1O5)c1ccccc1` (stereo partly drawn) [MP1108, N-((7R,12bS)-3-(cyclopropylmethyl)-9-hydroxy-2,3,4,4a,7,7a-hexahydro-1H-4,12-methanobenzofuro[3,2-e]isoquinolin-7-yl)benzamide] the Ki (KOP [9]) was 0.42 ± 0.05 nM and the Ki (MOP [10]) was 0.42 ± 0.06 nM.

`O=C(N[C@@H]1C=CC2C3Cc4ccc(O)c5c4[C@@]2(CCN3CC2CC2)C1O5)c1cccc(Cl)c1` (stereo partly drawn) [MP1109, 3-Chloro-N-((7R,12bS)-3-(cyclopropylmethyl)-9-hydroxy-2,3,4,4a,7,7a-hexahydro-1H-4,12-methanobenzofuro[3,2-e]isoquinolin-7-yl)benzamide] was tested, and the Ki (KOP [9]) was 0.13 ± 0.03 nM and the Ki (MOP [10]) was 0.16 ± 0.05 nM.

`O=C(N[C@@H]1C=CC2C3Cc4ccc(O)c5c4[C@@]2(CCN3CC2CC2)C1O5)c1cccc(Br)c1` (stereo partly drawn) [MP1110, 3-Bromo-N-((7R,12bS)-3-(cyclopropylmethyl)-9-hydroxy-2,3,4,4a,7,7a-hexahydro-1H-4,12-methanobenzofuro[3,2-e]isoquinolin-7-yl)benzamide] was tested, and the Ki (KOP [9]) was 0.12 ± 0.04 nM and the Ki (MOP [10]) was 0.18 ± 0.04 nM.

`O=C(N[C@@H]1C=CC2C3Cc4ccc(O)c5c4[C@@]2(CCN3CC2CC2)C1O5)c1ccccc1I` (stereo partly drawn) [MP1111, N-((7R,12bS)-3-(cyclopropylmethyl)-9-hydroxy-2,3,4,4a,7,7a-hexahydro-1H-4,12-methanobenzofuro[3,2-e]isoquinolin-7-yl)-2-iodobenzamide] gave a Ki (KOP [9]) of 0.27 ± 0.06 nM and a Ki (MOP [10]) of 0.2 ± 0.05 nM.

`O=C(N[C@@H]1C=CC2C3Cc4ccc(O)c5c4[C@@]2(CCN3CC2CC2)C1O5)c1ccc(I)cc1` (stereo partly drawn) [MP1112, N-((7R,12bS)-3-(cyclopropylmethyl)-9-hydroxy-2,3,4,4a,7,7a-hexahydro-1H-4,12-methanobenzofuro[3,2-e]isoquinolin-7-yl)-4-iodobenzamide] showed a Ki (KOP [9]) of 0.12 ± 0.03 nM and a Ki (MOP [10]) of 0.17 ± 0.03 nM.

For `O=C(N[C@@H]1C=CC2C3Cc4ccc(O)c5c4[C@@]2(CCN3CC2CC2)C1O5)c1cccc(C(F)(F)F)c1` (stereo partly drawn) [MP1113, N-((7R,12bS)-3-(cyclopropylmethyl)-9-hydroxy-2,3,4,4a,7,7a-hexahydro-1H-4,12-methanobenzofuro[3,2-e]isoquinolin-7-yl)-3-(trifluoromethyl)benzamide], the Ki (KOP [9]) was 0.14 ± 0.07 nM and the Ki (MOP [10]) was 0.24 ± 0.06 nM.

`O=C(N[C@@H]1C=CC2C3Cc4ccc(O)c5c4[C@@]2(CCN3CC2CC2)C1O5)c1cccc(F)c1` (stereo partly drawn) [MP1114, N-((7R,12bS)-3-(cyclopropylmethyl)-9-hydroxy-2,3,4,4a,7,7a-hexahydro-1H-4,12-methanobenzofuro[3,2-e]isoquinolin-7-yl)-3-fluorobenzamide] showed a Ki (KOP [9]) of 0.16 ± 0.07 nM and a Ki (MOP [10]) of 0.27 ± 0.08 nM.

Molecule `Cc1cccc(C(=O)N[C@@H]2C=CC3C4Cc5ccc(O)c6c5[C@@]3(CCN4CC3CC3)C2O6)c1` (stereo partly drawn) [MP1115, N-((7R,12bS)-3-(cyclopropylmethyl)-9-hydroxy-2,3,4,4a,7,7a-hexahydro-1H-4,12-methanobenzofuro[3,2-e]isoquinolin-7-yl)-3-methylbenzamide] has a Ki (KOP [9]) of 0.18 ± 0.08 nM and a Ki (MOP [10]) of 0.25 ± 0.06 nM.

In the case of `CN(C(=O)/C=C/c1ccoc1)[C@@H]1CC[C@@]2(O)[C@H]3Cc4ccc(O)c5c4[C@@]2(CCN3CC2CC2)[C@H]1O5` [Nalfurafine, reference compound], the Ki (MOP [10]) is reported as 4.2 ± 0.21 nM.

In the case of `CN(C(=O)/C=C/c1ccoc1)[C@@H]1CC[C@@]2(O)[C@H]3Cc4cccc5c4[C@@]2(CCN3CC2CC2)[C@H]1O5` [compound 18], the Ki (KOP [11]) is reported as 1.5 ± 0.05 nM and the Ki (MOP [12]) is reported as 533 ± 65 nM.

B1: Nb39 containing a C-terminal YFP (VHH)
VHH: QVQLVESGGGLVRPGGSLRLSCVDSERTSYPMGWFRRAPGKEREFVASITWSGIDPTYADSVADRFTTSRDVANNTLYLQMNSLKHEDTAVYYCAARAPVGQSSSPYDYDYWGQGTQVTVSS
In the case of B1, the “Attenuation of agonist dissociation rate at KOP” value (KOP [13]) is reported as “approximately 6 fold”, the “EC50 of the agonist MP1104 for recruitment of Nb39 to KOP (BRET)” value [14] is reported as 0.12 ± 0.02 nM and the “EC50 of the agonist SalA for recruitment of Nb39 to KOP (BRET)” value [14] is reported as 11.3 nM and 11.2 nM and 10.2 nM. For the same molecule, the “EC50 of the agonist U69,593 for recruitment of Nb39 to KOP (BRET)” value [14] was 3.78 ± 0.04 nM and the “EC50 of the partial agonist diprenorphine for recruitment of Nb39 to KOP (BRET)” value [14] was 5.2 ± 0.03 nM.
